# Results taken from patent US5622725A, “Wound disinfection and repair” (Alcide Corporation, priority 1996, dated 1997).
# Test system: mammalian tissue
# Experiment: Tolerance by mammalian tissue (eye irrigant, udder infusion, uterine douche)
# Format: in vivo, rabbits, cow, mares
# Conditions: 50 ppm
# From the text: The materials in the table which are as effective as the 50 ppm ClO2 solution are ones that would be considered to be too irritating and/or corrosive for use as an irrigant in a peritoneal cavity.
smiles,measurement,value
"[O][Cl+][O-] [ClO2, chlorine dioxide]",tolerance by mammalian tissue,well tolerated by mammalian tissue
